Measurements taken from US4501755A, “Isoflavones useful as anti-inflammatory agents” (Pennwalt Corporation, priority 1982, dated 1985).
Where a name gives a salt, the structure may show the parent alone.

System: carrageenan-induced paw edemas of test rats
Assay: carrageenan-induced paw edema (anti-inflammatory activity)
Format: in vivo, Male, Sprague-Dawley rats
Conditions: 50 mg/kg p.o.; carrageenan injected 2 hours after dosing, paw volume measured 3 hours later; control group paw volume as 100% edema
Description: These properties were determined by carrageenan-induced paw edemas of test rats. Male, Sprague-Dawley rats (Blue Spruce Farm) were ordered at 124-140 g, housed for one week, and allowed food and water ad libitum. At the time of the experiments, only rats weighing 160-200 g were used.
All compounds were dissolved or suspended in a 0.5% water solution of Methocel and orally administered to groups of six rats each. Control rats received Methocel only. Two hours later, paw edema was induced by subcutaneous injection into the plantar surface of the right hind paw of 0.1 ml of a 1.0% homogenized suspension of carrageenan.
Immediately, the volume of the paw was measured by immersing it in mercury to above the lateral mateolus. The mercury in a glass cylinder 22 mm in diameter and 60 mm deep was connected at the bottom of the cylinder by a column of water to a Statham transducer (model P23BB), range 0-5 cm of mercury pressure. The volume was recorded electronically on a Beckman recorder, R511. Three hours later, the inflamed paw volume was measured again, and the change in volume was recorded for each group. The percent inhibition of edema was calculated using the control group paw volume as 100% edema, i.e.,

| Structure (SMILES) | % Inhibition of Edema |
| --- | --- |
| CC(C)NCC(O)COc1ccc2c(=O)c(-c3ccccc3)c(C(C)C)oc2c1 (stereo not drawn) [Example 5, 7-(2-hydroxy-3-isopropylaminopropoxy)-2-isopropylisoflavone maleate] | 29% |
| CC(C)NCC(O)COc1ccc2c(=O)c(-c3ccccc3)coc2c1 (stereo not drawn) [Example 1, 7-(2-hydroxy-3-isopropylaminopropoxy)-3-phenylchromone hydrochloride] | 45% |
| CC(C)NCC(O)COc1ccc2c(=O)c(-c3ccccc3)c(C(F)(F)F)oc2c1 (stereo not drawn) [Example 4, 7-(2-hydroxy-3-isopropylaminopropoxy)-2-trifluoromethylisoflavone hydrochloride] | 31% |
